In ChEMBL document CHEMBL5096190, “Recent advances of quinones as a privileged structure in drug discovery” (Eur J Med Chem, 2021) one finds IC50, Kd and MIC data, which are given here for 13 compounds.

Molecules are shown by their SMILES. Values after ≈ are worked out from the molar mass of the structure shown.

The target of assay [1] is T1, Arylsulfatase A (Homo sapiens, UniProt P15289).
T1 sequence (P15289 whole entry): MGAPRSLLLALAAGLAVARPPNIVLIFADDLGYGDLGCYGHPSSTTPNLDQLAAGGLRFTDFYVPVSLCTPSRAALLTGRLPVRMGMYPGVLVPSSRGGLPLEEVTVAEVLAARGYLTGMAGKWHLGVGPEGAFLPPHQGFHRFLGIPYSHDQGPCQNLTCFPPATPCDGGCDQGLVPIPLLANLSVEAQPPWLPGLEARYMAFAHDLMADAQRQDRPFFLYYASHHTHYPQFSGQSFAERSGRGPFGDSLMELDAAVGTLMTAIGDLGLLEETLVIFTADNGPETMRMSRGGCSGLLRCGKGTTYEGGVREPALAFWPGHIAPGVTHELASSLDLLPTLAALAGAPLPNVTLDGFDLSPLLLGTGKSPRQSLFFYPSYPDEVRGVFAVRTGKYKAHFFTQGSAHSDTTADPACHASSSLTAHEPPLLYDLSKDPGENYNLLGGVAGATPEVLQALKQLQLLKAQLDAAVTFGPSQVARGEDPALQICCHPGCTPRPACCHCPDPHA
The assay is described as follows: Inhibition of ARSA (unknown origin) using 4-methylumbelliferyl sulfate (4-MUS) as a substrate by fluorescent assay.

The target in assay [2] is T1, Arylsulfatase A. The experiment in a line: Binding affinity to ARSA (unknown origin) assessed as dissociation constant by SPR analysis.
A further assay concerns GBM. The assay is described as follows: Anticancer activity against human GBM cells assessed as cell growth inhibition incubated for 72 hrs. Format: functional, cell-based.
Assay [3] is described as follows: Inhibition of NFAT activity in human GBM cells. In kind it is cell-based.
For another assay, the system named is MGC-803. The assay is described as follows: Cytotoxicity against human MGC-803 cells assessed as reduction in cell viability measured after 72 hrs by MTT assay. In kind it is functional, cell-based. Conditions: MGC-803, 72 h. For orientation: Tetrazolium dyes change colour on reduction, which living cells bring about.
In the next assay the test system is U-87 MG. The experiment in a line: Cytotoxicity against human U87 cells assessed as reduction in cell viability measured after 72 hrs by MTT assay. Format: functional, cell-based, U-87MG ATCC.
The next assay relates to SGC-7901. The experiment in a line: Cytotoxicity against human SGC-7901 cells assessed as reduction in cell viability measured after 72 hrs by MTT assay. Format: functional, cell-based. Conditions: SGC-7901, 72 h.
The test system of another assay is Enterococcus hirae. The assay is described as follows: Antibacterial activity against Enterococcus hirae ATCC 10541 assessed as growth inhibition after 24 hrs by two-fold serial dilution method. In kind it is functional.
Assay [4] in a line: Inhibition of Hepatitis C virus NS3 helicase measured by fluorescence helicase assay. Also noted: species or system Hepacivirus hominis.
The next assay relates to MIA PaCa-2. The experiment in a line: Antitumor activity against human MIA PaCa-2 cells assessed as reduction in cell viability and incubated for 3 hrs by MTT assay. In kind it is functional, cell-based. The conditions noted are these: MIA PaCa-2, 3 h.
For a further assay, the system named is PANC-1. The assay is described as follows: Antitumor activity against human PANC-1 cells assessed as reduction in cell viability and incubated for 3 hrs by MTT assay. The conditions noted are these: PANC-1, 3 h. Format: functional, cell-based.
The next assay deals with BXPC-3. The experiment in a line: Antitumor activity against human BXPC-3 cells assessed as reduction in cell viability and incubated for 3 hrs by MTT assay. The conditions noted are these: BXPC-3, 3 h. Format: functional, cell-based.
A further assay has as its target Cholinesterase (Homo sapiens, UniProt P06276). The experiment in a line: Inhibition of human BuChE at 550 uM using butyrylthiocholine chloride as substrate by Ellman's method. On the technique in general: In Ellman's method for cholinesterases, released thiocholine reacts with DTNB.
The next assay has as its system MOLT-4. The assay is described as follows: Cytotoxicity against human MOLT-4 cells assessed as inhibition of cell growth incubated for 24 to 72 hrs by MTT assay. Format: functional, cell-based.

Cholinesterase, sequence (P06276 whole entry): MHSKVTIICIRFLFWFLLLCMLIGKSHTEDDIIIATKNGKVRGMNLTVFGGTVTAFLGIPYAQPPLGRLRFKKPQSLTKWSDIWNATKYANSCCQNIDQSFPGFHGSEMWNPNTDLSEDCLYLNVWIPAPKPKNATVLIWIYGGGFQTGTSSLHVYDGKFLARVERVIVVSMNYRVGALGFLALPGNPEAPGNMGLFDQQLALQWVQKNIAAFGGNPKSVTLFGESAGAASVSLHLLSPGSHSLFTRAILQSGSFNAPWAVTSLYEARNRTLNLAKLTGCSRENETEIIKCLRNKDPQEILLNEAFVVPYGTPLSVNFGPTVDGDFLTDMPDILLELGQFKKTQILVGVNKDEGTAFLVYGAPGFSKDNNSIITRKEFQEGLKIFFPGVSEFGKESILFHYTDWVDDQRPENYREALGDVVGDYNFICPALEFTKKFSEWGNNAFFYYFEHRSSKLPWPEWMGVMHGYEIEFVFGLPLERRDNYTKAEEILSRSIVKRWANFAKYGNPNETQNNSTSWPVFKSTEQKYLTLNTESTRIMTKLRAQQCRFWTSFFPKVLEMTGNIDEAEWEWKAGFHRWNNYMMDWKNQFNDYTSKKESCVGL

Consider `O=C1C=CC(=O)c2c1ccc1c2c(=O)oc2c3ccccc3ccc12`, for which it took 13.2 µM to reach half-maximal inhibition on Arylsulfatase A [1] (IC50). For the same compound, the Kd at Arylsulfatase A [2] is 21 µM. `Nc1c(-c2cccnc2)ncc2c1C(=O)c1c(-c3ccccn3)nn(-c3ccc(F)cc3F)c1C2=O`: the IC50 in the assay with GBM came out at 25 µM. Take `O=C1C=C(Nc2ccc3cnccc3c2)c2ccccc2C1=O`: the IC50 in assay [3] was 0.82 µM. Take `CC(C)=CCC(OC(=O)CCC(=O)Nc1ccc(Oc2ccccc2)cc1)C1=CC(=O)c2c(O)ccc(O)c2C1=O` (stereo not drawn): the figures for the IC50 with MGC-803, in the assay with U-87 MG and with SGC-7901 were 4.1 µM, 3.8 µM and 4.1 µM, respectively.

As for `NC1=C(NC(=O)Cn2cc(CCBr)nn2)C(=O)c2ccccc2C1=O`, in the assay on Enterococcus hirae, the MIC was found to be 4 µg/mL (≈ 9.9 µM). `O=C(O)c1cc(O)c2c(c1)[C@H]([C@@H]1c3cccc(O)c3C(=O)c3c(O)cc(C(=O)O)cc31)c1cccc(O)c1C2=O` came in with an IC50 in assay [4] of 0.8 µM. `NC1=C(NC(=O)Cn2cc(CC3CCCCC3)nn2)C(=O)c2ccccc2C1=O`: in the assay on Enterococcus hirae, the MIC was 4 µg/mL (≈ 10.2 µM). Compound `O=C1c2c(O)ccc(O)c2C(=O)c2c(O)ccc(O)c21` returned an IC50 in assay [4] of 6 µM.

`CC(=O)c1ccccc1NC1=CC(=O)c2ncncc2C1=O`: the IC50 in the assay with MIA PaCa-2 is 1.9 µM; with PANC-1, 2.2 µM; in the assay on BXPC-3, 2.7 µM. In turn, `CC1=C(NC2CCN(Cc3ccccc3)CC2)C(=O)c2ccccc2C1=O` gave an IC50 on Cholinesterase of 0.0957 µM.

`Nc1c(-c2ccccc2)ncc2c1C(=O)c1c(-c3ccccn3)nn(-c3ccc(F)cc3F)c1C2=O`: the IC50 in the assay on GBM was found to be 25 µM. With `C[C@@]12CCC(=O)c3coc(c31)C(=O)c1cc3c(cc12)C(=O)C=CC3=O` [HELENAQUINONE], the IC50 in the assay with MOLT-4 was 1.44 µM. Compound `Cc1cc(O)c2c(=O)c3c(O)cc(O)c4c5c(O)cc(O)c6c(=O)c7c(O)cc(C)c8c1c2c(c34)c(c78)c65` [HYPERICIN] had an IC50 in assay [4] of 3 µM.

The IC50 is the concentration that gives 50% inhibition. What is called Kd is the free concentration of one partner at which half of the binding sites on the other are occupied at equilibrium, for simple one-to-one binding. For orientation: MIC means the lowest concentration that inhibits growth of the organism.
